The data set is described as follows: Henry solubility constant Hcp at 298.15 K (mol/(m3 Pa)).
The mark [1] stands for this setting: reference: Fenclová et al. (2014).
Where [2] appears, read: reference: Souchon et al. (2004).
Where [3] appears, read: reference: Warner et al. (1980).
[4] abbreviates: reference: Jönsson et al. (1982).

Each structure is given as a SMILES string.

As for `CCCC(=O)OCC` [ethyl butanoate], the “Henry solubility constant Hcp” value was determined as 0.024 (reference: Aprea et al. (2007)); 0.029 under setting [1]; 0.024 (reference: Landy et al. (1995)); 0.04 (reference: Landy et al. (1996)); 0.026 under setting [2].
For the compound `CCCCCCCCCC(=O)OCC` [ethyl decanoate], under “reference: Aprea et al. (2007)”, the “Henry solubility constant Hcp” value amounted to 0.014.
For the compound `CCCCCC(=O)OCC` [ethyl hexanoate], the “Henry solubility constant Hcp” value turned out to be 0.014 (reference: Aprea et al. (2007)), 0.0094 (reference: Landy et al. (1995)) and 0.016 (reference: Landy et al. (1996)).
In the case of `CCSC` [ethyl methyl sulfide], the “Henry solubility constant Hcp” value (reference: Schuhfried et al. (2011)) was 0.0042.
On to `CCCCCCCC(=O)OCC` [ethyl octanoate], for which, under “reference: Aprea et al. (2007)”, the “Henry solubility constant Hcp” value stood at 0.011.
Consider `CCOC(=O)CC` [ethyl propanoate], for which, under setting [1], the “Henry solubility constant Hcp” value was 0.041.
With `CCC1CCCCC1` [ethylcyclohexane], the “Henry solubility constant Hcp” value stood at 2e-05 (reference: Dohányosová et al. (2004)) and 3.1e-05 (reference: Heidman et al. (1985)).
For the compound `COP(=S)(OC)Oc1ccc([N+](=O)[O-])c(C)c1` [fenitrothion], the “Henry solubility constant Hcp” value (reference: Metcalfe et al. (1980)) was 11.
As for `CC(Cc1ccc(C(C)(C)C)cc1)CN1CCCCC1` (stereo not drawn) [fenpropidin], the “Henry solubility constant Hcp” value (reference: Feigenbrugel and Le Calvé (2021)) stood at 710.
Regarding `Fc1ccccc1` [fluorobenzene], the “Henry solubility constant Hcp” value (reference: Hartkopf and Karger (1973)) stood at 0.0015.
Turning to `O=C(O)CF` [fluoroethanoic acid], the “Henry solubility constant Hcp” value (reference: Bowden et al. (1998a)) was 800.
On to `CF` [fluoromethane], for which the “Henry solubility constant Hcp” value is 0.00058 (reference: Glew and Moelwyn-Hughes (1953)); 0.00058 (reference: Swain and Thornton (1962)).
For `C[C@@H]1CCC[C@]2(C)CCCC[C@@]12O` [geosmin], under “reference: Ömür-Özbek and Dietrich (2005)”, the “Henry solubility constant Hcp” value came to 0.081.
Take `COc1cc(CC(C)=O)ccc1O` [guaiacylacetone]: for the setting “reference: McFall et al. (2020)”, the “Henry solubility constant Hcp” value came out at 12000.
Regarding `[He]` [helium], the “Henry solubility constant Hcp” value came out at 3.7e-06 (reference: Cady et al. (1922)); 3.8e-06 (reference: Friedman (1954)); 3.9e-06 (reference: Krause and Benson (1989)); 3.8e-06 (reference: Lannung (1930)); 3.7e-06 (reference: Morrison and Johnstone (1954)); 6.3e-06 (reference: von Antropoff (1910)).
With `ClC1=C(Cl)C2(Cl)C3C(Cl)C=CC3C1(Cl)C2(Cl)Cl` (stereo not drawn) [heptachlor], under setting [3], the “Henry solubility constant Hcp” value came to 0.0067.
For `ClC1=C(Cl)C2(Cl)C3C4OC4C(Cl)C3C1(Cl)C2(Cl)Cl` (stereo not drawn) [heptachlorepoxide], the “Henry solubility constant Hcp” value under setting [3] is 0.31.
`CCCCCCC=O` [heptanal]: the “Henry solubility constant Hcp” value is, setting by setting: (reference: Buttery et al. (1965)) 0.06; under setting [2], 0.035.
On to `CCCCCCC` [heptane], for which the “Henry solubility constant Hcp” value by setting is: under setting [4], 4.2e-06; (reference: Park et al. (1997)) 5.5e-06.
`CCCCCCC(=O)O` [heptanoic acid]: the “Henry solubility constant Hcp” value (reference: Kim and Kim (2016)) was found to be 15.
For `ClC1=C(Cl)C(Cl)(Cl)C(Cl)=C1Cl` [hexachlorocyclopentadiene], the “Henry solubility constant Hcp” value reads like this: under setting [3], 0.0006; (reference: Wolfe et al. (1982)) 0.00037.
Consider `ClC(Cl)(Cl)C(Cl)(Cl)Cl` [hexachloroethane], for which the “Henry solubility constant Hcp” value is, setting by setting: (reference: Munz and Roberts (1986)) 0.0034; (reference: Munz and Roberts (1987)) 0.0025; under setting [3], 0.001.
Regarding `Fc1c(F)c(F)c(F)c(F)c1F` [hexafluorobenzene], where the note is “reference: Schröder et al. (2011)”, the “Henry solubility constant Hcp” value was found to be 0.00029.
`FC(F)(F)C(F)(F)F` [hexafluoroethane]: the “Henry solubility constant Hcp” value is, setting by setting: (reference: Bonifácio et al. (2001)) 6.5e-07; (reference: Park et al. (1982)) 5.3e-07; (reference: Wen and Muccitelli (1979)) 5.6e-07.
With `FC(F)=C(F)C(F)(F)F` [hexafluoropropene], the “Henry solubility constant Hcp” value (reference: Maaßen (1995)) amounted to 6.8e-06.
Turning to `CCCCCC` [hexane], the “Henry solubility constant Hcp” value under setting [4] was 5.9e-06; the “Henry solubility constant Hcp” value (reference: Park et al. (1997)) was determined as 7.4e-06; the “Henry solubility constant Hcp” value (reference: Tsonopoulos and Wilson (1983)) is 6.7e-06.

These data come from Sander's compilation of Henry's law constants.
